Molecular target: T1, human leukocyte elastase enzyme (Homo sapiens, UniProt P08246)
T1 sequence (P08246 30-267): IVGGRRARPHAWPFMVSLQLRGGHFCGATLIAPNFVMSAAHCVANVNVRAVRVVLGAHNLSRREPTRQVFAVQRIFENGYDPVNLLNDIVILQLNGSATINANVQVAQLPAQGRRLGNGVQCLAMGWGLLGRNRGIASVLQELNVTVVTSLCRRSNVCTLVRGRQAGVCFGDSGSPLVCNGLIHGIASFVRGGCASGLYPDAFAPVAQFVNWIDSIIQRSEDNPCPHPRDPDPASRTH
Assay: Inhibition of acute lung damaging effect caused by human leukocyte elastase enzyme, determined on mice (BAL haemoglobin)
Assay type: in vivo, mouse
Details: for inhibition %: male NMRI mice, p.o. dose 10 mg/bw kg, 60 minutes before intratracheal human leukocyte elastase, haemorrhagic response (BAL haemoglobin, 540 nm) 3 hours later; for ED50: mouse, po, mice, per os, elastase-induced lung haemorrhage
Description: Inhibition of Acut Lung Damaging Effect Caused by Human Leukocyte Elastase Enzyme, Determined on Mice.
Description of the method:
Male NMRI mice approximately 6-8 week old of age, weighing between 22-26 grams were dosed per os with the 0.1% (w/v) solution in carboxymethyl cellulose of the investigated compounds of the general formula (I) or of the known comparatory compound, respectively. 60 minutes later the mice were given intratracheally 12.5 international unit of human leukocyte elastase enzyme dissolved in 25.0 μL sterile physiological sodium chloride solution.
3 hours later the animals were euthanized with an overdose of urethane and into the lung 1 ml of physiological salt solution was introduced, for washing.
The trachea was exposed at wound by opening suture clips and a small incision made for insertion of a polyethylene cannula secured in place with surgical thread. An 18 gauge×1½ inch needle, attached to an 1.00 mL syringe was inserted into the cannula, and 0.5 mL of air was withdrawn from the airways. One milliliter was then instilled into the airways. After it the chest was briefly and gently massaged. The syringe was removed from the cannula and the bronchoalveolar lavage (BAL) fluid allowed to drain into a 10.0 mL graduate to determine the total volume of lavage fluid retrievable from lungs while the animal was in a supine position. The instillation procedure mentioned above was repeated three times. Triton X100 was then added to the collected bronchoalveolar lavage fluid (final concentration, 0.2% v/v) to ensure cell disruption and the haemoglobin content was determined spectrophotometrically at 540 nm.
Effectiveness of the elastase enzyme inhibitory compound was determined on the basis of the haemorrhagic responses, according to the following formula:
% inhibition=[(VE−DE)/(VE−VS)]×100,
VE=mean absorbance of BAL fluids from the group pretreated orally only with vehicle but intratracheally with elastase;
DE=absorbance of each BAL fluid from animals pretreated orally with potential inhibitor compound, intratracheally with elastase;
VS=mean absorbance of BAL fluids from group pretreated orally with vehicle and intratracheally with sterile physiological salt solution.
For comparative compound the structurally most related known compound described in patent application EP-0626378A1 example 9E was used. Its synthesis is described above in the reference example.

Structure (SMILES) | inhibition % [%] | ED50 [mg/kg]
COc1cc(C(C)C)c2c(c1)S(=O)(=O)N(COc1cc(=O)n3cccc(OCCN4CCCCC4)c3n1)C2=O [Example 3, 2(-9-(2-piperidino-ethoxy)-4-oxo-4H-pyrido[1,2-a]pyrimidin-2-yl-oxymethyl)-4-isopropyl-6-methoxy-1,2-benzisothiazol-3(2H)-one-1,1-dioxide] | 80 | 2.6
COc1cc(C(C)C)c2c(c1)S(=O)(=O)N(COc1cc(=O)n3cccc(OCCN4CCCCC4)c3n1)C2=O.O=C(O)CC(O)(CC(=O)O)C(=O)O [Example 8, 2-(9-(2-piperidino-ethoxy)-4-oxo-4H-pyrido[1,2-a]pyrimidin-2-yl-oxymethyl)-4-isopropyl-6-methoxy-1,2-benzisothiazol-3(2H)-one-1,1-dioxide monocitrate salt] | 70 | 
COc1cc(C(C)C)c2c(c1)S(=O)(=O)N(COc1cc(=O)n3cccc(OCCN4CCCCC4)c3n1)C2=O.O=C(O)c1ccccc1 [Example 7, 2-(9-(2-piperidino-ethoxy)-4-oxo-4H-pyrido[1,2-a]pyrimidin-2-yl-oxymethyl)-4-isopropyl-6-methoxy-1,2-benzisothiazol-3(2H)-one-1,1-dioxide benzoate salt] | 56 | 
COc1cc(C(C)C)c2c(c1)S(=O)(=O)N(COc1cc(=O)n3cccc(OCCN4CCCC4)c3n1)C2=O [EP-626378, Example 9E, 2-(9-(2-pyrrolidino-ethoxy)-4-oxo-4H-pyrido[1,2-a]pyrimidin-2-yl-oxymethyl)-4-isopropyl-6-methoxy-1,2-benzisothiazol-3(2H)one-1,1-dioxide, reference compound] | 15 | 23

From patent publication US20030114449A1, “SACCHARIN DERIVATIVES AS ORALLY ACTIVE ELASTASE INHIBITORS” (priority 1999, published 2003)
